According to ChEMBL document CHEMBL4184145, “Synthesis and structure-activity relationship of teixobactin analogues via convergent Ser ligation” (2017):
≈ marks a conversion by molar mass, not a printed value.

Assays:
[1] = tested on: Staphylococcus aureus; assay: Antibacterial activity against methicillin-susceptible Staphylococcus aureus ATCC 29213 by broth dilution assay; type: functional
[2] = tested on: Staphylococcus aureus; assay: Antibacterial activity against methicillin-resistant Staphylococcus aureus clinical isolate SA86 by broth dilution assay; type: functional

| Compound | MIC [1] [µg/mL] | MIC [2] [µg/mL] |
| --- | --- | --- |
| CC[C@@H](C)[C@@H](NC(=O)[C@@H](CCC(N)=O)NC(=O)[C@H](CO)NC(=O)[C@@H](NC(=O)[C@@H](Cc1ccccc1)NC)[C@@H](C)CC)C(=O)N[C@H](C(=O)N[C@@H](CO)C(=O)N[C@H]1C(=O)N[C@@H](C)C(=O)N[C@@H](CCNC(=N)N)C(=O)N[C@@H]([C@@H](C)CC)C(=O)O[C@H]1C)[C@@H](C)CC | 8 to 16 (≈ 6.5 to 13 µM) | 16 (≈ 13 µM) |
| CC[C@@H](C)[C@@H](NC(=O)[C@@H](CCC(N)=O)NC(=O)[C@H](CO)NC(=O)[C@@H](NC(=O)[C@@H](Cc1ccccc1)NC)[C@@H](C)CC)C(=O)N[C@H](C(=O)N[C@@H](CO)C(=O)N[C@H]1C(=O)N[C@@H](C)C(=O)N[C@@H](CCCN)C(=O)N[C@@H](CC(C)C)C(=O)O[C@H]1C)[C@@H](C)CC | ≥ 32 | ≥ 32 |
| CC[C@@H](C)[C@@H](NC(=O)[C@@H](CCC(N)=O)NC(=O)[C@H](CC(N)=O)NC(=O)[C@@H](NC(=O)[C@@H](Cc1ccccc1)NC)[C@@H](C)CC)C(=O)N[C@H](C(=O)N[C@@H](CO)C(=O)N[C@H]1C(=O)N[C@@H](C)C(=O)N[C@@H](CCCN)C(=O)N[C@@H]([C@@H](C)CC)C(=O)O[C@H]1C)[C@@H](C)CC | 16 (≈ 13 µM) | ≥ 32 |
| CC[C@@H](C)[C@@H](NC(=O)[C@@H](CCC(N)=O)NC(=O)[C@H](CO)NC(=O)[C@@H](NC(=O)[C@H](Cc1ccccc1)NC)[C@@H](C)CC)C(=O)N[C@H](C(=O)N[C@@H](CO)C(=O)N[C@H]1C(=O)N[C@@H](C)C(=O)N[C@@H](CCCN)C(=O)N[C@@H]([C@@H](C)CC)C(=O)O[C@H]1C)[C@@H](C)CC | ≥ 32 | ≥ 32 |
| CC[C@@H](C)[C@@H](NC(=O)[C@@H](CCC(N)=O)NC(=O)[C@H](CO)NC(=O)[C@@H](NC(=O)[C@@H](Cc1ccccc1)NC)[C@@H](C)CC)C(=O)N[C@H](C(=O)N[C@@H](CO)C(=O)N[C@H]1C(=O)N[C@@H](C)C(=O)N[C@@H](CCCN)C(=O)N[C@@H]([C@@H](C)CC)C(=O)O[C@H]1C)C(C)C | ≥ 32 | ≥ 32 |
| CC[C@@H](C)[C@@H](NC(=O)[C@@H](CCC(N)=O)NC(=O)[C@H](C)NC(=O)[C@@H](NC(=O)[C@@H](Cc1ccccc1)NC)[C@@H](C)CC)C(=O)N[C@H](C(=O)N[C@@H](CO)C(=O)N[C@H]1C(=O)N[C@@H](C)C(=O)N[C@@H](CCCN)C(=O)N[C@@H]([C@@H](C)CC)C(=O)O[C@H]1C)[C@@H](C)CC | 4 (≈ 3.37 µM) | 4 (≈ 3.37 µM) |
| CC[C@H](C)[C@H](NC(=O)[C@@H](C)NC(=O)[C@@H](CCC(N)=O)NC(=O)[C@H](CO)NC(=O)[C@@H](NC(=O)[C@@H](Cc1ccccc1)NC)[C@@H](C)CC)C(=O)N[C@@H](CO)C(=O)N[C@H]1C(=O)N[C@@H](C)C(=O)N[C@@H](CCCN)C(=O)N[C@@H]([C@@H](C)CC)C(=O)O[C@H]1C | ≥ 32 | ≥ 32 |
| CC[C@@H](C)[C@@H](NC(=O)[C@@H](CCC(N)=O)NC(=O)[C@H](CO)NC(=O)[C@H](C)NC(=O)[C@@H](Cc1ccccc1)NC)C(=O)N[C@H](C(=O)N[C@@H](CO)C(=O)N[C@H]1C(=O)N[C@@H](C)C(=O)N[C@@H](CCCN)C(=O)N[C@@H]([C@@H](C)CC)C(=O)O[C@H]1C)[C@@H](C)CC | ≥ 32 | ≥ 32 |
| CC[C@@H](C)[C@@H](NC(=O)[C@@H](CCC(N)=O)NC(=O)[C@H](CO)NC(=O)[C@@H](NC(=O)[C@@H](Cc1ccccc1)NC)[C@@H](C)CC)C(=O)N[C@H](C(=O)N[C@@H](CO)C(=O)N[C@H]1C(=O)NCC(=O)N[C@@H](CCCN)C(=O)N[C@@H]([C@@H](C)CC)C(=O)O[C@H]1C)[C@@H](C)CC | ≥ 32 | ≥ 32 |
| CC[C@@H](C)[C@@H](NC(=O)[C@@H](CCC(N)=O)NC(=O)[C@H](CO)NC(=O)[C@@H](NC(=O)[C@@H](Cc1ccccc1)NC)[C@@H](C)CC)C(=O)N[C@H](C(=O)N[C@@H](CO)C(=O)N[C@H]1C(=O)N[C@@H](CCCN)C(=O)N[C@@H](CCCN)C(=O)N[C@@H]([C@@H](C)CC)C(=O)O[C@H]1C)[C@@H](C)CC | 8 (≈ 6.42 µM) | 8 (≈ 6.42 µM) |
| CC[C@@H](C)[C@@H](NC(=O)[C@@H](CCC(N)=O)NC(=O)[C@H](CO)NC(=O)[C@@H](NC(=O)[C@@H](Cc1ccccc1)NC)[C@@H](C)CC)C(=O)N[C@H](C(=O)N[C@@H](CO)C(=O)N[C@H]1C(=O)N[C@@H](C)C(=O)N[C@@H](CCCN)C(=O)N[C@@H](C(C)C)C(=O)O[C@H]1C)[C@@H](C)CC | 8 (≈ 6.73 µM) | 8 (≈ 6.73 µM) |
| CC[C@@H](C)[C@@H](NC(=O)[C@@H](CCC(N)=O)NC(=O)[C@H](CCCCN)NC(=O)[C@@H](NC(=O)[C@@H](Cc1ccccc1)NC)[C@@H](C)CC)C(=O)N[C@H](C(=O)N[C@@H](CO)C(=O)N[C@H]1C(=O)N[C@@H](C)C(=O)N[C@@H](CCCN)C(=O)N[C@@H]([C@@H](C)CC)C(=O)O[C@H]1C)[C@@H](C)CC | 4 (≈ 3.22 µM) | 8 (≈ 6.43 µM) |
| CC[C@@H](C)[C@@H](NC(=O)[C@@H](CCC(N)=O)NC(=O)[C@H](CO)NC(=O)[C@@H](NC(=O)[C@@H](C)NC)[C@@H](C)CC)C(=O)N[C@H](C(=O)N[C@@H](CO)C(=O)N[C@H]1C(=O)N[C@@H](C)C(=O)N[C@@H](CCCN)C(=O)N[C@@H]([C@@H](C)CC)C(=O)O[C@H]1C)[C@@H](C)CC | ≥ 32 | ≥ 32 |
| CC[C@@H](C)[C@@H](NC(=O)[C@H](CCC(N)=O)NC(=O)[C@H](CO)NC(=O)[C@@H](NC(=O)[C@@H](Cc1ccccc1)NC)[C@@H](C)CC)C(=O)N[C@H](C(=O)N[C@@H](CO)C(=O)N[C@H]1C(=O)N[C@@H](C)C(=O)N[C@@H](CCCN)C(=O)N[C@@H]([C@@H](C)CC)C(=O)O[C@H]1C)[C@@H](C)CC | ≥ 32 | ≥ 32 |
| CC[C@@H](C)[C@@H](NC(=O)[C@@H](CCC(N)=O)NC(=O)[C@H](CO)NC(=O)[C@H](NC(=O)[C@@H](Cc1ccccc1)NC)[C@@H](C)CC)C(=O)N[C@H](C(=O)N[C@@H](CO)C(=O)N[C@H]1C(=O)N[C@@H](C)C(=O)N[C@@H](CCCN)C(=O)N[C@@H]([C@@H](C)CC)C(=O)O[C@H]1C)[C@@H](C)CC | ≥ 32 | ≥ 32 |
| CC[C@@H](C)[C@@H](NC(=O)[C@@H](CCC(N)=O)NC(=O)[C@H](CO)NC(=O)[C@@H](NC(=O)[C@@H](Cc1ccccc1)NC)[C@@H](C)CC)C(=O)N[C@@H](C)C(=O)N[C@@H](CO)C(=O)N[C@H]1C(=O)N[C@@H](C)C(=O)N[C@@H](CCCN)C(=O)N[C@@H]([C@@H](C)CC)C(=O)O[C@H]1C | ≥ 32 | ≥ 32 |
| CC[C@@H](C)[C@@H](NC(=O)[C@@H](CCC(N)=O)NC(=O)[C@H](CO)NC(=O)[C@@H](NC(=O)[C@@H](Cc1ccccc1)NC)[C@@H](C)CC)C(=O)N[C@@H](Cc1ccccc1)C(=O)N[C@@H](CO)C(=O)N[C@H]1C(=O)N[C@@H](C)C(=O)N[C@@H](CCCN)C(=O)N[C@@H]([C@@H](C)CC)C(=O)O[C@H]1C | ≥ 32 | ≥ 32 |
| CC[C@@H](C)[C@@H](NC(=O)[C@@H](CCC(N)=O)NC(=O)[C@H](CO)NC(=O)[C@@H](NC(=O)[C@H](N)Cc1ccccc1)[C@@H](C)CC)C(=O)N[C@H](C(=O)N[C@@H](CO)C(=O)N[C@H]1C(=O)N[C@@H](C)C(=O)N[C@@H](CCCN)C(=O)N[C@@H]([C@@H](C)CC)C(=O)O[C@H]1C)[C@@H](C)CC | 16 (≈ 13.5 µM) | 16 (≈ 13.5 µM) |
| CC[C@@H](C)[C@@H](NC(=O)[C@@H](CCC(N)=O)NC(=O)[C@H](CO)NC(=O)[C@H](CC(C)C)NC(=O)[C@@H](Cc1ccccc1)NC)C(=O)N[C@H](C(=O)N[C@@H](CO)C(=O)N[C@H]1C(=O)N[C@@H](C)C(=O)N[C@@H](CCCN)C(=O)N[C@@H]([C@@H](C)CC)C(=O)O[C@H]1C)[C@@H](C)CC | 4 to 8 (≈ 3.33 to 6.65 µM) | 4 to 8 (≈ 3.33 to 6.65 µM) |
| CC[C@@H](C)[C@@H](NC(=O)[C@@H](CC(N)=O)NC(=O)[C@H](CO)NC(=O)[C@@H](NC(=O)[C@@H](Cc1ccccc1)NC)[C@@H](C)CC)C(=O)N[C@H](C(=O)N[C@@H](CO)C(=O)N[C@H]1C(=O)N[C@@H](C)C(=O)N[C@@H](CCCN)C(=O)N[C@@H]([C@@H](C)CC)C(=O)O[C@H]1C)[C@@H](C)CC | 4 (≈ 3.37 µM) | 4 (≈ 3.37 µM) |
| CC[C@H](C)[C@H](NC(=O)[C@@H](Cc1ccccc1)NC)C(=O)N[C@@H](CO)C(=O)N[C@H](CCC(N)=O)C(=O)N[C@@H](C(=O)N[C@H](C(=O)N[C@@H](CO)C(=O)N[C@H]1C(=O)N[C@@H](C)C(=O)N[C@@H](CCCN)C(=O)N[C@@H]([C@@H](C)CC)C(=O)O[C@H]1C)[C@@H](C)CC)C(C)C | 8 to 16 (≈ 6.73 to 13.5 µM) | 16 (≈ 13.5 µM) |
| CC[C@@H](C)[C@@H](NC(=O)[C@@H](CCC(N)=O)NC(=O)[C@H](CO)NC(=O)[C@@H](NC(=O)[C@@H](Cc1ccccc1)NC)[C@@H](C)CC)C(=O)N[C@H](C(=O)N[C@@H](CO)C(=O)N[C@H]1C(=O)N[C@@H](Cc2ccccc2)C(=O)N[C@@H](CCCN)C(=O)N[C@@H]([C@@H](C)CC)C(=O)O[C@H]1C)[C@@H](C)CC | ≥ 32 | ≥ 32 |
| CC[C@@H](C)[C@@H](NC(=O)[C@@H](CCC(N)=O)NC(=O)[C@H](CO)NC(=O)[C@@H](NC(=O)[C@@H](Cc1ccccc1)NC)[C@@H](C)CC)C(=O)N[C@H](C(=O)N[C@@H](CO)C(=O)N[C@H]1C(=O)N[C@H](C)C(=O)N[C@@H](CCCN)C(=O)N[C@@H]([C@@H](C)CC)C(=O)O[C@H]1C)[C@@H](C)CC | ≥ 32 | ≥ 32 |
| CC[C@@H](C)[C@@H](NC(=O)[C@@H](CCC(N)=O)NC(=O)[C@H](CO)NC(=O)[C@@H](NC(=O)[C@@H](Cc1ccccc1)NC)[C@@H](C)CC)C(=O)N[C@H](C(=O)N[C@@H](CO)C(=O)N[C@H]1C(=O)N[C@@H](C)C(=O)N[C@@H](CCCN)C(=O)N[C@@H]([C@@H](C)CC)C(=O)O[C@H]1C)[C@@H](C)CC | 2 (≈ 1.66 µM) | 2 (≈ 1.66 µM) |
| CC[C@@H](C)[C@@H](NC(=O)[C@@H](CCC(N)=O)NC(=O)[C@H](CO)NC(=O)[C@@H](NC(=O)[C@@H](Cc1ccccc1)NC)[C@@H](C)CC)C(=O)N[C@@H](CC(C)C)C(=O)N[C@@H](CO)C(=O)N[C@H]1C(=O)N[C@@H](C)C(=O)N[C@@H](CCCN)C(=O)N[C@@H]([C@@H](C)CC)C(=O)O[C@H]1C | ≥ 32 | ≥ 32 |
| CC[C@@H](C)[C@@H](NC(=O)[C@@H](CCC(N)=O)NC(=O)[C@H](CO)NC(=O)[C@@H](NC(=O)[C@@H](Cc1ccccc1)NC)[C@@H](C)O)C(=O)N[C@H](C(=O)N[C@@H](CO)C(=O)N[C@H]1C(=O)N[C@@H](C)C(=O)N[C@@H](CCCN)C(=O)N[C@@H]([C@@H](C)CC)C(=O)O[C@H]1C)[C@@H](C)CC | ≥ 32 | ≥ 32 |
